Experimental data taken from patent publication US20090270476A1, “PHARMACEUTICAL COMPOSITION FOR TREATMENT OR PREVENTION OF NEPHRITIS AND MANUFACTURING METHOD THEREOF” (priority 2005, published 2009).
Entries after “also recorded” stand apart in the source; their conditions may differ.

What was measured:
Assay type in all cases: in vivo, Wister rats
nephritis model rat [1] = experiment: Effects of orniplabin on urinary protein, lipid peroxide in blood and organomegaly in nephritis model rat
Procedure: Three-week-old male Wister rats (Charles River) were raised for 6 days with pellet diet (CE-2, Nihon Crea) and then raised with the 20% casein diet for 5 days to be subjected to the experiment. The animals were raised at approximately 22° C., with relative humidity […] under lighting from 8:00 to 20:00.
(§1) 0.6 mL of Anti-rat-glomerular basement membrance rabbit serum was administered into the caudal vein. Next day rabbit γ-globulin (Sigma), and 8 mg/0.2 mL Freund's complete adjuvant (Wako Junyaku) were subcutaneously injected into hinder leg's footpad to cause nephritis (nephritis model rat).
Since anti-serum was injected, the body weight and feed intake were measured every morning and urinary proteins of 24-hour urine was measured every other day, specifically urine was collected in a flask from 9 AM of the day before to 9 AM of the day and the measurement was carried out using commercial protein measurement kit (Bio-Rad, Protein Assay, Bio-Rad). (Refer to Biosci. Biotechnol. Biochem., 65, 1155-1162 (2001))
(§2) The urinary proteins were measured three days after the injection of anti-serum and the rats were grouped according to the measurement values. An orniplabin solution equivalent to 5 mg/Kg concentration was intrapenitoneally injected everyday to the orniplabin administration group since then. Nothing was injected to the control group. Rats of respective groups were dissected to remove blood, liver and kidneys 14 days after nephritis was induced, and weights of the removed materials were measured. Further lipid peroxides of a part of blood obtained were measured using a commercial measurement kit (Wako Junyaku). The normal group represents the untreated group, the control group represents—the nephritis-induced group and SMTP group represents the orniplabin-injected group. Student's t-test of significant difference between two groups was carried out as the level significance is 0.05. Tukey's multiple comparison method was used for the testing of significance between three groups. The data associated with the amount of urinary proteins and the weight of organs are treated with the scale per 100 g of body weight as a benchmark.

nephritis model rat [2] = experiment: Effects of orniplabin administration on plasma components in nephritis model rat
Procedure: as §1, §2
Further effects of orniplabin administration on plasma components were investigated by measuring a variety of concentrations of plasma component, (Normal group, n=6; control group, n=10; and orniplabin-injected group, n=6) The following plasma components were measured; lactate dehydrogenase (LD; PureAuto S LD), […] amino transferase (AST AutoSera S AST), alanine aminotransferase (ALT: AutoSera S ALT), creatine phosphate kinase (CPK; PureAuto S CK), alkaline phosphatase (ALP; AutoSera S ALP), γ-glutamyl transpeptidase (γ-GTP; PureAuto S γ-GT), total bilirubin (BIL: AutoSera BIL-2), glucose (GLU; PureAuto S GLU-R), triglyceride (TG; AutoSera S TG-N), total cholesterol (T-CHO; Choletest CHO), phospholipid (PL; PureAuto S PL), total protein (TP; AutoSera TP), urea nitrogen (UN; PureAuto S UN), albumin (ALB; AutoSera ALB), calcium (CA; AutoSera CA), inorganic phosphoric acid (IP; Clini mate IP-2), (Daiichi Chemical), creatinine (CRE-S; AccursAuto CRE, Sinotest), acetoacetic acid (ACAC; Ketone Test A Sanwa liquid, Sanwa Science Laboratories), 3-hydroxy butyric acid (OHBA; Ketone Test B Sanwa liquidA Sanwa Science Laboratories), free fafty acids (NEFA; AutoSera R NEFA (Daiichi Chemical) and HDL cholesterol (HDL; Cholest-R N HDL (Daichi Chemical) were used to measure. Further Hitachi Amino acid automatic analyzer 7180 (Hitachi) was used.
The comparison results between the control group and the orniplabin-injected group, and the normal group of which average value is as 1 are shown in FIG. 5 to FIG. 8.

nephritis model rat [3] = experiment: Observation of PAS-stained kidney histologic sections and nephritis score
Procedure: Section samples were prepared from three animals selected according to the variation of urinary protein in respective groups. Periodic acid Schiff (PAS) staining was conducted on the kidney histologic section.
A procedure for PAS staining was; slicing a sampler washing the sample with water after paraffin-removal, soaking the sample in a solution of 1% periodic acid for 10 minutes, and washing again the sample with water; soaking the histologic section prepared in Schiff reagent for 10 to 15 minutes, washing the sample in a staining bat three times for 3 minutes, total for 9 minutes, and washing the sample with water; and then staining the sample with hematoxylin for 1 minute, washing the sample with warm water for 10 minutes, dehydrating and penetrating the sample and then sealing the sample.
Observation of the histologic sample was conducted on renal glomerulus using a microscope with 200× magnifications. The bar in Figs is corresponding to 50 μm.
Fifty (50) glomeruli every three samples of each group were ranked according to damaged levels. The ranks were from normal (rank 1) to the most progressed damage (rank 5) and five grades according to damages were given to provide a score. The average of the scores was decided as the score of the sample (nephritis score).

[4] = 5 mg/Kg intraperitoneal everyday
[5] = 5 mg/Kg intraperitoneal everyday, 14 days after nephritis induction, weight per 100 g body weight
[6] = decrease by induction of nephritis
[7] = orniplabin-injected group vs control group
[8] = renal glomerulus, PAS staining, orniplabin-injected group

food intake (nephritis model rat [1]; [4]): without affecting | increase of body weight (nephritis model rat [1]; [4]): without affecting
Structure (SMILES): CC(C)=CCC/C(C)=C/CC[C@@]1(C)Oc2c(c(O)cc3c2CN(CCC[C@@H](C(=O)O)N2Cc4c(cc(O)c5c4O[C@](C)(CC/C=C(\C)CCC=C(C)C)[C@H](O)C5)C2=O)C3=O)C[C@H]1O [orniplabin]
urinary proteins (nephritis model rat [1]; 5 mg/Kg intraperitoneal everyday from day 3, 24-hour urine, vs control group): decreased | lipid peroxides in serum (nephritis model rat [1]; 5 mg/Kg intraperitoneal everyday, 14 days after nephritis induction, vs control group): decreased | hypertrophy of kidneys (nephritis model rat [1]; [5]): suppressed | hypertrophy of liver (nephritis model rat [1]; [5]): suppressed | concentration of BIL in plasma (nephritis model rat [2]; [6]): prevented or these concentrations were recovered | concentration of CA in plasma (nephritis model rat [2]; [6]): prevented or these concentrations were recovered | concentration of GLU in plasma (nephritis model rat [2]; [6]): prevented or these concentrations were recovered | concentration of IP in plasma (nephritis model rat [2]; [6]): prevented or these concentrations were recovered | concentration of TP (total proteins) in plasma (nephritis model rat [2]; orniplabin-injected group): recovered to the normal level | concentration of ACAC in plasma (nephritis model rat [2]; [7]): lower than that of the control group | concentration of ALB in plasma (nephritis model rat [2]; [7]): almost not different | concentration of ALP in plasma (nephritis model rat [2]; [7]): not significantly different | concentration of ALT in plasma (nephritis model rat [2]; [7]): not significantly different | concentration of AST in plasma (nephritis model rat [2]; [7]): not significantly different | concentration of CRE-S in plasma (nephritis model rat [2]; [7]): almost not different | concentration of HDL in plasma (nephritis model rat [2]; [7]): in decreasing trend | concentration of LD in plasma (nephritis model rat [2]; [7]): not significantly different | concentration of OHBA in plasma (nephritis model rat [2]; [7]): prevented or these concentrations were recovered; also recorded: higher than that of the control group | concentration of OK in plasma (nephritis model rat [2]; [7]): not significantly different | concentration of PL in plasma (nephritis model rat [2]; [7]): in decreasing trend | concentration of T-CHO in plasma (nephritis model rat [2]; [7]): in decreasing trend | concentration of TG in plasma (nephritis model rat [2]; [7]): significantly decreased | concentration of UN in plasma (nephritis model rat [2]; [7]): almost not different | concentration of γ-GTP in plasma (nephritis model rat [2]; [7]): not significantly different | nephritis score (nephritis model rat [3]; 50 glomeruli per sample, three samples, rank 1 (normal) to rank 5 (most progressed damage), control group 3.80±0.13): 2.77±0.04 | abnormal histologic hypertrophy of proximal convoluted tubule tissue (nephritis model rat [3]; PAS staining, orniplabin-injected group): not observed | crescent formation (nephritis model rat [3]; [8]): low level crescent formation | mesangium proliferation (nephritis model rat [3]; [8]): almost no mesangium proliferation
